Experimental data published in ChEMBL document CHEMBL1135297, “Enantioselective synthesis of S-(+)-2beta-carboalkoxy-3alpha-[bis(4-fluorophenyl)methoxy]tropanes as novel probes for the dopamine transporter” (Bioorg Med Chem Lett, 2002).

Legend:
[1] = molecular target: Norepinephrine transporter (Rattus norvegicus, UniProt Q9WTR4); test: Ability to displace [3H]-nisoxatine radioligand for the Norepinephrine transporter in rat brain; type: tissue-based
[2] = molecular target: Sodium-dependent serotonin transporter (Rattus norvegicus, UniProt P31652); test: Ability to displace [3H]citalopram radioligand, for the Serotonin transporter in rat brain; type: tissue-based
Sodium-dependent serotonin transporter, sequence (P31652 whole entry): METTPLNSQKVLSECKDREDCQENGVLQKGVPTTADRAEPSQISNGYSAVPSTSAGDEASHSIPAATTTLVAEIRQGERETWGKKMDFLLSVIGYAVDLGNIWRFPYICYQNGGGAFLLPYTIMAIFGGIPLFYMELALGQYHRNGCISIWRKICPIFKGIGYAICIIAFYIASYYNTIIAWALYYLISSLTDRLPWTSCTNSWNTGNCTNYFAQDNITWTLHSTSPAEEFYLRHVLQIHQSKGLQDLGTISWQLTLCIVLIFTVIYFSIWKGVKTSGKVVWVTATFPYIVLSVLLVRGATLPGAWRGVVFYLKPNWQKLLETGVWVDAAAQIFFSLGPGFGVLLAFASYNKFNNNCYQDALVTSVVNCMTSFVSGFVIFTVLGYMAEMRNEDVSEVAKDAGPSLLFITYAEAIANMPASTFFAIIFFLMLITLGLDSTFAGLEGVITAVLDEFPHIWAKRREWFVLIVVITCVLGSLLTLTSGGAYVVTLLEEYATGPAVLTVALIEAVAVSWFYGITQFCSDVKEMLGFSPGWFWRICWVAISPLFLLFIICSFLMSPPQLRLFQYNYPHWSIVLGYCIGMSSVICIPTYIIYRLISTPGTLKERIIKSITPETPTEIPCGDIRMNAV

[3] = molecular target: Sodium-dependent dopamine transporter (Rattus norvegicus, UniProt P23977); test: Ability to displace [3H]WIN-35 radioligand for the dopamine transporter 428 DAT in rat brain; type: tissue-based
Sodium-dependent dopamine transporter, sequence (P23977 whole entry): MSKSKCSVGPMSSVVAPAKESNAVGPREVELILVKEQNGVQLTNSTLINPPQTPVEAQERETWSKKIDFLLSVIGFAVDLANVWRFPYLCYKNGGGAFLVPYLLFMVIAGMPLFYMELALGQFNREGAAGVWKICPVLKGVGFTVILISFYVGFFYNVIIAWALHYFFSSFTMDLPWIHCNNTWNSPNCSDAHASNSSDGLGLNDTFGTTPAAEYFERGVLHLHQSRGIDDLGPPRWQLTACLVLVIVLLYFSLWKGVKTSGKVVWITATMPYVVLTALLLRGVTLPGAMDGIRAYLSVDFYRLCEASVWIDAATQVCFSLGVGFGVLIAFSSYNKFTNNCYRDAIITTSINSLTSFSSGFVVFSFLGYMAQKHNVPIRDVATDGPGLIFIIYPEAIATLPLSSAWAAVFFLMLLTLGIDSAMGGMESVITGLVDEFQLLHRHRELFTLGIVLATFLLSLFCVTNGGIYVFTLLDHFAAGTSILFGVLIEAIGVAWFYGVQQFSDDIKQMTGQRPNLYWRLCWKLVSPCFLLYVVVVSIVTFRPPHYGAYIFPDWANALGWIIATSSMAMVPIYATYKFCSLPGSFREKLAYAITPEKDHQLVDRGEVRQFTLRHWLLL

[4] = molecular target: T1, Muscarinic acetylcholine receptor M1 (Rattus norvegicus, UniProt P08482); test: Ability to displace [3H]pirenzepine radioligand for the Muscarinic acetylcholine receptor M1 in rat brain; type: tissue-based
T1 sequence (P08482 whole entry): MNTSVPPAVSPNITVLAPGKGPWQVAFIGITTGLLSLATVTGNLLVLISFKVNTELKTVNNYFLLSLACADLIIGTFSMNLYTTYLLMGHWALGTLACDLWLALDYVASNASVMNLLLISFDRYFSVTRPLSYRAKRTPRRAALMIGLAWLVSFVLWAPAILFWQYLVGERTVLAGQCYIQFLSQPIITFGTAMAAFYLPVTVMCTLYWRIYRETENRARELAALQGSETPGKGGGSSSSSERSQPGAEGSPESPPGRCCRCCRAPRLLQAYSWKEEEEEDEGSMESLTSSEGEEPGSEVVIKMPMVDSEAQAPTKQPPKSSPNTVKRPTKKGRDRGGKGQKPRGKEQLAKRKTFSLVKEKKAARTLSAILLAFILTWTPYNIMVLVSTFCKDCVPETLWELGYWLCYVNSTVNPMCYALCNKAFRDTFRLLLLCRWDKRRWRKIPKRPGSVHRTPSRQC

Rattus norvegicus = species: Rattus norvegicus; test: Inhibition of [3H]DA uptake in rat synaptosomes; type: functional, Brain

Norepinephrine transporter, sequence (Q9WTR4 whole entry): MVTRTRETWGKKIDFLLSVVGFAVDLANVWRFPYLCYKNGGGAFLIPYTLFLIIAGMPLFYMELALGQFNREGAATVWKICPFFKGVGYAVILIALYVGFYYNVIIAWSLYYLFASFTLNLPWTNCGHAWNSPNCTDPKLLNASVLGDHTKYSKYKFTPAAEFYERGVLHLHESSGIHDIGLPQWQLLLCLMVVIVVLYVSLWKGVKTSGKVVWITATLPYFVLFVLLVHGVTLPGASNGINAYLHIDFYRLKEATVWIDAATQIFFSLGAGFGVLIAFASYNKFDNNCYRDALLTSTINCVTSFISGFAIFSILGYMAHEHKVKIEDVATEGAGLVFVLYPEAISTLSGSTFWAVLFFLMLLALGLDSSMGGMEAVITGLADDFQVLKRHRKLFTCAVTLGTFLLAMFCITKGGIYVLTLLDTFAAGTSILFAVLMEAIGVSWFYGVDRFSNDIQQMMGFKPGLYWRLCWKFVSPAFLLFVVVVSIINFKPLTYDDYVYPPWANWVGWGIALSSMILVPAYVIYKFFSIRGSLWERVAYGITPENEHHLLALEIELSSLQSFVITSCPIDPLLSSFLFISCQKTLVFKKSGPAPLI

Structure (SMILES)	Ki [1] [nM]	Ki [2] [nM]	Ki [3] [nM]	Ki [4] [nM]	IC50 (Rattus norvegicus) [nM]	IC50 (Rattus norvegicus; Rattus norvegicus, Brain) [nM]
CN1C2CCC1CC(OC(c1ccc(F)cc1)c1ccc(F)cc1)C2 (stereo unspecified) [DIFLUOROBENZTROPINE]	610	3260	–	–	–	–
CN1C2CCC1C(C(=O)OCc1ccccc1)C(OC(c1ccc(F)cc1)c1ccc(F)cc1)C2 (racemic)	4110	3320	90.3	5100	3.5	–
COC(=O)C1C(OC(c2ccc(F)cc2)c2ccc(F)cc2)CC2CCC1N2C (single isomer, unassigned; (+))	269	690	12.9	133	–	1.5
CCOC(=O)C1C(OC(c2ccc(F)cc2)c2ccc(F)cc2)CC2CCC1N2C (single isomer, unassigned; (+))	629	1850	16.8	1890	–	–
CN1C2CCC1C(C(=O)OCc1ccccc1)C(OC(c1ccc(F)cc1)c1ccc(F)cc1)C2 (stereo unspecified)	2230	2040	40.2	4380	–	2.2
CCOC(=O)C1C(OC(c2ccc(F)cc2)c2ccc(F)cc2)CC2CCC1N2C (racemic)	1020	3740	26.2	1860	–	3.6
COC(=O)C1C(OC(c2ccc(F)cc2)c2ccc(F)cc2)CC2CCC1N2C (racemic)	474	1750	21.3	302	2.9	–
CC(C)OC(=O)C1C(OC(c2ccc(F)cc2)c2ccc(F)cc2)CC2CCC1N2C (single isomer, unassigned; (+))	642	12000	23.3	2680	–	6.2
CC(C)OC(=O)C1C(OC(c2ccc(F)cc2)c2ccc(F)cc2)CC2CCC1N2C (racemic)	1990	13800	49.1	7640	6.8	–
